In US7994129B2, “Methods of using black bear parathyroid hormone” (Michigan Technological University, priority 2005, dated 2011):
“Also recorded” adds a separate entry of the source.

What was measured:
[1] = men and women who can lose 20-30% of cortical and cancellous bone; cited from earlier work
[2] = test system: rats; conditions: cited from earlier work; for osteosarcoma on long-term usage: rats
[3] = test system: ovariectomized rats; conditions: cited from earlier work
[4] = test system: MC-3T3 cells; test: Gene expression by real-time PCR in MC-3T3 cells incubated with synthetic bear or human PTH 1-34 (Example 11); format: cell-based; conditions: 100 nM; for expression ratio of Bax/Bcl-2: 3 hours, MC-3T3 cells (FIG. 7, n=4); for expression of type I collagen / expression of osteocalcin: 6 hours, MC-3T3 cells; for expression of type I collagen: compared to the vehicle control; for expression of osteocalcin: compared to the vehicle control (FIG. 6, n=2)
Description: MC-3T3 cells were incubated in vehicle or 100 nM synthetic bear or human PTH 1-34 for 3 or 6 hours (n=2 or 4). Total RNA was isolated, and cDNA was generated with reverse transcription. Primers for the bone matrix proteins type I collagen and osteocalcin, the pro-apoptotic protein Bax, the anti-apoptotic protein Bcl-2, and the housekeeping genes Gapdh, β-actin, and cyclophillin were designed using PrimerQuest software (Integrated DNA Technologies, Coralville, Iowa). Real-time PCR was performed using the Mx3000P real-time PCR system (Stratagene, LaJolla, Calif.). All samples were measured in duplicate. Gene expression was determined using the relative standard curve method normalized to the geometric mean of the three housekeeping genes (Gapdh, β-actin, and cyclophillin). Apoptosis-related genes were analyzed as the expression ratio of Bax/Bcl-2, since a decrease in this ratio is associated with decreased apoptosis in vitro.

[5] = test system: MC-3T3 osteoblastic cells and MLO-Y4 osteocytic cells; test: Gene expression in bone cell lines by real-time PCR (Example 7); format: cell-based; conditions: 100 nM PTH polypeptide, 1 or 3 hours
Description: Full-length recombinant black bear PTH (residues 1-84) is produced and its effects on levels of gene expression in bone cell lines (MC-3T3 osteoblastic cells and MLO-Y4 osteocytic cells) are investigated and are compared to results obtained using recombinant human PTH 1-84. Equivalent experiments are conducted using subfragments of black bear and human PTH, the subfragments including amino acid residues 1-34, 1-36, 7-84, 11-84, and 41-52 of the full-length (1-84) mature protein. For some experiments, black bear and human PTH polypeptides are synthesized with solid-phase methods.
To determine the effect of black bear and human PTH on regulation of bone matrix, transcriptional regulatory, anti-apoptosis (Bcl-2) genes, and the pro-apoptosis gene Bax, cells are cultured for 1 or 3 hours with human or bear PTH 1-84 or a subfragment. Gene expression is quantified with real-time PCR. […]
Reverse transcription to generate cDNA is performed using Superscript II reverse transcriptase (Invitrogen, Carlsbad, Calif.), and 0.5 μg Oligo(dT) 12-18 primer at 42° C. for 20 minutes, 50° C. for 10 minutes and 42° C. for 1 hour in a gradient thermocycler (Mastercycler gradient, Eppendorf, Westbury, N.Y.). […] Gene expression is determined using the relative standard curve method normalized to the geometric mean of the three housekeeping genes. […]

[6] = test system: procollagen-1 mRNA; conditions: Nasu et al., 1998; cited from earlier work
[7] = humans, once daily; cited from earlier work

ALX1-11: recombinant human PTH 1-84 (NPS Pharmaceuticals), under consideration for FDA approval
lost bone recovered during suggested treatment regimen [1]: 8% | osteosarcoma on long-term usage [2]: generates osteosarcoma

CC[C@H](C)[C@H](NC(=O)[C@H](CCC(=O)O)NC(=O)[C@H](CO)NC(=O)[C@@H](NC(=O)[C@@H](N)CO)C(C)C)C(=O)N[C@@H](CCC(N)=O)C(=O)N[C@@H](CC(C)C)C(=O)N[C@@H](CCSC)C(=O)N[C@@H](Cc1cnc[nH]1)C(=O)N[C@@H](CC(N)=O)C(=O)N[C@@H](CC(C)C)C(=O)NCC(=O)N[C@@H](CCCCN)C(=O)N[C@@H](Cc1cnc[nH]1)C(=O)N[C@@H](CC(C)C)C(=O)N[C@@H](CC(N)=O)C(=O)N[C@@H](CO)C(=O)N[C@@H](CCSC)C(=O)N[C@@H](CCC(=O)O)C(=O)N[C@@H](CCCN=C(N)N)C(=O)N[C@H](C(=O)N[C@@H](CCC(=O)O)C(=O)N[C@@H](Cc1c[nH]c2ccccc12)C(=O)N[C@@H](CC(C)C)C(=O)N[C@@H](CCCN=C(N)N)C(=O)N[C@@H](CCCCN)C(=O)N[C@@H](CCCCN)C(=O)N[C@@H](CC(C)C)C(=O)N[C@@H](CCC(N)=O)C(=O)N[C@@H](CC(=O)O)C(=O)N[C@H](C(=O)N[C@@H](Cc1cnc[nH]1)C(=O)N[C@@H](CC(N)=O)C(=O)N[C@@H](Cc1ccccc1)C(=O)O)C(C)C)C(C)C [LY333334]
osteosarcoma on long-term usage [2]: generates osteosarcoma

bovine PTH 1-34: bovine PTH 1-34; rat PTH 1-34 has 5 amino acid sequence differences from it (AVSEIQFMHNLGKHLSSMERVEWLRKKLQDVHNF; Parathyroid hormone; UniProt P01268 32-65, looked up, fragment)
greater bone formation response than to rat PTH 1-34 ([3]; daily 25 μg injections): 25% | greater increase in bone volume fraction during treatment ([3]; injection, versus rat PTH 1-34): 37%

human PTH 1-84: full-length human parathyroid hormone, residues 1-84
rate of carcinogenicity compared with human PTH 1-34 ([2]; preliminary results): lower

bear PTH 1-34: synthetic polypeptide of amino acid residues 1-34 of black bear parathyroid hormone, SEQ ID NO: 2 (SVSEIQFMHNLGKHLSSMERVEWLRKKLQDVHNF; listed as Ursus americanus)
expression ratio of Bax/Bcl-2 [4]: decreased | expression ratio of Bax/Bcl-2 ([4]; listed as black bear PTH 1-34): decreases | expression of type I collagen [4]: did not affect | expression of osteocalcin [4]: substantially upregulated | expression of osteocalcin ([4]; listed as black bear PTH 1-34): upregulate | gene expression (bone matrix, transcriptional regulatory and transcriptional activator genes) [5]: upregulates

human PTH 1-34: synthetic human PTH 1-34, the 1-34 region of human PTH, used as comparator (SVSEIQLMHNLGKHLNSMERVEWLRKKLQDVHNF; Parathyroid hormone; UniProt P01270 32-65, looked up, fragment)
expression ratio of Bax/Bcl-2 [4]: increases | expression of type I collagen [4]: did not affect | expression of osteocalcin [4]: substantially upregulated; also recorded: upregulate | production of procollagen-1 mRNA [6]: down-regulates

B1: Human PTH: human parathyroid hormone given once daily to humans (protein, UniProt P01270 32-115, looked up)
Parathyroid hormone: SVSEIQLMHNLGKHLNSMERVEWLRKKLQDVHNFVALGAPLAPRDAGSQRPRKKEDNVLVESHEKSLGEADKADVNVLTKAKSQ
modifications: Parathyroid hormone
bone mass [7]: increases | fracture incidence [7]: decreases
